From patent publication US5728686A, “Alkylxanthine phosphonates and alkylxanthine phosphine oxides and their use as pharmaceuticals” (Hoechst Aktiengesellschaft, priority 1996, dated 1998)
Converted amounts (≈) assume the structure as drawn.

Legend:
[1] = system: isolated guinea pig trachea, agonist substance P; assay: antagonist of substance P-induced contraction of isolated guinea pig trachea; format: cell-based; conditions: Cavia porcellus, individual doses, 37° C., read-out: Anticontractile action (trachea), SP antagonism: concentration range for dilatation corresponding to ED50 range
Source text: 3. Activity as antagonist of the contraction of isolated guinea pig trachea
The compounds of the formula I are used as antagonists of the contraction of isolated guinea pig trachea. The agonists employed were PGF2α (Upjohn, Germany), calcium ionophore A23187 (Calbiochem, Bad Soden, Germany), and substance P (American Peptide Comp., USA):
The antagonism is possible on the one hand due to specific receptor antagonists, and on the other hand also due to inhibition of the subsequent signal pathway. Preparations which directly or indirectly increase the intracellular concentration of cyclic nucleotides in particular show spasmolytic properties here.
(§1) Preparation of the organ sections and experimental procedure:
The guinea pig is sacrificed by means of terminal laughing gas anaesthesia. The trachea is exposed along its entire length and cut into 15 individual cartilage rings. 5 rings in each case are tied together to give a chain and fixed in the organ bath under a preload of 3 g. After an equilibration time of 45 minutes, a contraction is produced using the agonist. The antagonist (test preparation) is added cumulatively on the plateau of the maximum. Evaluation is carried out in % force change relative to the contraction maximum. The experimental procedure is carried out at 37° C.; the physiological nutrient solution used is a modified Krebs-Henseleit solution through which is bubbled 95% by volume of O2, 5% by volume of CO2.
Experimental animals: albino guinea pigs (Hattersheim Animal Breeding Institute, Kastengrund, Germany), weight: 200 to 300 g, sex male or female.
Vehicle: double-distilled water, ethanol or isopropanol; administration: into the organ bath number of administration: cumulative, in SP individual doses
All numerical values are indicated in the unit μg/ml and relate to the concentration range of the tested compound of the formula I according to the invention (see example numbers in Table 1) which is necessary in order to cause a dilatation which corresponds to the ED50 range.

[2] = system: isolated guinea pig lung strips, leukotriene D4 (LTD4); assay: antagonist of LTD4-induced contraction of isolated guinea pig lung strips; format: cell-based; conditions: Cavia porcellus, read-out: Anticontractile action (lung), LTD4: concentration range corresponding to the IC50 value
Source text: (§2) 4. Activity as an antagonist of the contraction of isolated guinea pig lung strips
(§3) The test carried out is based on the same principle as the test indicated in the pharmacological test 3; however, lung strips are used here.
as §1
(§4) The guinea pig is sacrificed under laughing gas anaesthesia. The entire pulmonary tract is exposed starting from the trachea. The lobes of the lung are cut in a circular fashion such that 3 mm wide strips are formed. The strips of the upper lobes are divided in order to obtain a total of six approximately equal size strips. The strips are suspended in the organ baths under a preload of 4 g. The nutrient solutions used are modified Krebs Henseleit solutions. When using "Platelet activating factor" (PAF) as an […], the composition of this solution corresponds to that for the agonist SP in "Test 3"; for the agonist LTD4 a Krebs Henseleit solution as in the case of the agonist KCl (Test 3) is used. 95% by volume O2, 5% by volume CO2 is used for bubbling through the bath; the bath temperature is 37° C. The experimental procedure is carried out in a therapeutically cumulative methodology, using the dosage graduations 1, 3, 6 and 10 μg/ml.
(§5) The experimental animals, organ bath, vehicles and manner of administration correspond to that stated in pharmacological test 3.
(§6) All numerical values are indicated in the unit μg/ml and relate to the concentration range of tested compound of the formula I (see example numbers in Table 1) which is necessary in order to cause a contraction which corresponds to the IC50 value.

[3] = system: muscle group (gastrocnemius, plantaris and soleus) of the immobilized right rear extremity; assay: rat muscle function test: direct electrical stimulation of muscle group after 3 weeks' immobilization; format: in vivo, male Wistar rats; conditions: oral, 1x per day for 3 weeks, as a rule 25 mg/kg, ≤-12% classified as active; for Force (force under the contraction curve, right/left difference): isometric stimulation, control difference approx. 25%; for Work (performed work, right/left difference): isotonic stimulation, control approx. -25%
Source text: (§7) 1. Activity in the rat muscle function test
(§8) Male Wistar rats (body weight about 300 g) were kept under standard conditions with feed and water ad libitum. The right rear extremity was immobilized by fitting a kind of "shoe" to the animals under short-term anaesthesia. Two ergonomically fitted halves of the "shoe" were cast from a liquid plastic material which is also used for the production of dental prostheses, these were put onto the animal under brief anaesthesia and joined with the aid of a wire. The material is light but hard, so that the animals cannot gnaw the material, and the "shoe" can be opened at any time to examine the condition of the immobilized extremity. The two halves were moreover padded out with chamois leather in order to avoid compressions and possible injuries due to rubbing. The system also has the advantage that the angle of immobilization is standardized in all animals; this would not be possible with a plaster cast. The chosen angle allows the animals to take up a normal sitting position despite the "shoe" and also to carry the body weight using this extremity. Only complete stretching or bending of the leg is impossible.
(§9) After 3 weeks' immobilization of the right rear extremity and simultaneous oral administration of test preparations (1× per day using a stomach tube; as a rule 25 mg/kg of body weight, in carboxymethylcellulose, the animals were weighed and anaesthetized with pentobarbital (35 mg/kg i.p.). Functional parameters were measured during direct electrical stimulation of a muscle group (gastrocnemius, plantaris and soleus). This muscle group, merely called "muscle" in the following, was exposed at the ankle tendon and tied to a force transducer via the tendon.
To determine the contractile force, the muscles were stimulated isometrically, i.e. a preload of 0.5N was applied and the muscle was stimulated by means of a series of electrical pulses, which led to a maximum contraction, every 0.7 sec for 80 msec for a period of 15 min. […] The area under this contraction curve was evaluated and the difference in percent between the right atrophic and left normal muscle compared (force under the contraction curve as difference in percent (Δ%)). The difference in the control group is approximately 25%.
An isotonic muscle stimulation was used to determine the performed work of the muscle over time. In this type of measurement, the shortening of the muscle during contraction is used as a basis. To this end, a preload which corresponds to the body weight was applied to the muscles. A series of stimulation pulses (80 msec) were triggered every 3 sec and the muscle was stimulated for 15 min. The data (contraction force and distance travelled) were converted to the work performed in the unit J using an automated system. The difference in the work performed between the immobilized atrophic and the normal muscle in the control animals was approximately -25%.
Values which are positive indicate that the functional parameters of the immobilized muscle were better than those of the contralateral normal muscle.

[4] = system: soleus muscle; assay: rat muscle function test: muscle weight (atrophy of immobilized extremity); format: in vivo, male Wistar rats; conditions: oral, 1x per day for 3 weeks, as a rule 25 mg/kg, difference ≤25% classified as an effect
Source text: as §7, §8
In spite of this, a significant decrease in the skeletal muscle mass (atrophy) of the immobilized extremity occurred, to be precise up to -35% in comparison with the contralateral nonimmobilized rear extremity. As the soleus muscle was the most severely affected, the changes in muscle weight after administration of preparation shown in Table 1 relate to this muscle. A difference of ≤25% between the right immobilized and left non-immobilized rear extremity was classified as an effect.
as §9

[5] = system: phosphodiesterase III; assay: inhibition of phosphodiesterase III activity; format: biochemical; conditions: at 100 μM
Description: 5. Inhibition of phosphodiesterase III activity
The test is carried out using phosphodiesterase from Boehringer Mannheim (Mannheim, Germany), Order No. 108 243 according to the method of T. SAEKI, I. SAITO, Biochem. Pharm. 46, No. 5, […], pages 833-839.
All numerical values are indicated in % inhibition of the enzyme activity at 100 μM of the corresponding compound of the formula I.

[6] = system: isolated guinea pig lung strips, Platelet activating factor (PAF); assay: antagonist of PAF-induced contraction of isolated guinea pig lung strips; format: cell-based; conditions: Cavia porcellus, read-out: Anticontractile action (lung), PAF: concentration range corresponding to the IC50 value
Source text: as §2, §3, §1, §4, §5, §6

Row | SMILES | EC50 [1] | IC50 [2] | Force (force under the contraction curve, right/left difference) [3] | Work (performed work, right/left difference) [3] | Muscle weight (right/left difference) [4] | PDE III Inhibition [5] | IC50 [6]
1 | CCCn1c(=O)c2c(ncn2CCCP(=O)(OCC)OCC)n(CCC)c1=O [Example 9, Diethyl [3-(1,3-dipropylxanthin-7-yl)propyl]phosphonate] | 10 to 30 mg/L (≈ 24.1 to 72.4 µM) | 3 to 6 mg/L (≈ 7.24 to 14.5 µM) | – | – | – | – | –
2 | CCOP(=O)(CCCCn1cnc2c1c(=O)n(CCC(C)C)c(=O)n2C)OCC [Example 15, Diethyl [4-(1-(3-methylbutyl)-3-methylxanthin-7-yl)butyl]phosphonate] | 30 to 60 mg/L (≈ 70 to 140 µM) | – | +5 Δ % | +2 Δ % | 0 Δ % | – | –
3 | CCCn1cnc2c1c(=O)n(CCCCCP(=O)(OCC)OCC)c(=O)n2C [Example 17, Diethyl [5-(3-methyl-7-propylxanthin-1-yl)-pentyl]phosphonate] | 30 to 60 mg/L (≈ 72.4 to 145 µM) | 1 to 3 mg/L (≈ 2.41 to 7.24 µM) | +2 Δ % | -10 Δ % | 0 Δ % | 77% | 1 to 3 mg/L (≈ 2.41 to 7.24 µM)
4 | CCOP(=O)(CCCCCn1c(=O)c2c(ncn2CC)n(C)c1=O)OCC [Example 20, Diethyl 5-(7-ethyl-3-methylxanthin-1-yl)pentylphosphonate] | 10 to 30 mg/L (≈ 25 to 74.9 µM) | – | – | – | – | 65% | –
5 | CCCn1cnc2c1c(=O)n(CCCCP(=O)(OCC)OCC)c(=O)n2C [Example 32, Diethyl [4-(3-methyl-7-propyl-xanthin-1-yl)butyl]phosphonate] | 10 to 30 mg/L (≈ 25 to 74.9 µM) | 6 to 10 mg/L (≈ 15 to 25 µM) | -9 Δ % | -1 Δ % | 0 Δ % | 65% | 6 to 10 mg/L (≈ 15 to 25 µM)
6 | CCOP(=O)(CCCn1c(=O)c2c(ncn2C)n(C)c1=O)OCC [Example 33, Diethyl [3-(3,7-dimethylxanthin-1-yl)propyl]phosphonate] | 10 to 30 mg/L (≈ 27.9 to 83.7 µM) | – | -7 Δ % | -10 Δ % | -16 Δ % | – | 3 to 6 mg/L (≈ 8.37 to 16.7 µM)
7 | CCOP(=O)(CCCCCn1c(=O)c2c(ncn2Cc2ccccc2)n(C)c1=O)OCC [Example 43, Diethyl [5-(7-benzyl-3-methylxanthin-1-yl)pentyl]phosphonate] | – | 1 to 6 mg/L (≈ 2.16 to 13 µM) | – | – | – | 52% | 1 to 3 mg/L (≈ 2.16 to 6.49 µM)
8 | CCOP(=O)(CCCn1c(=O)c2c(ncn2CC2CC2)n(C)c1=O)OCC [Example 46, Diethyl [3-(7-cyclopropylmethyl-3-methylxanthin-1-yl)propyl]phosphonate] | – | – | +1 Δ % | +9 Δ % | -17 Δ % | 67% | –
9 | CCOP(=O)(CCCn1c(=O)c2c(ncn2C(C)C)n(C)c1=O)OCC [Example 47] | 10 to 30 mg/L (≈ 25.9 to 77.6 µM) | – | – | -6 Δ % | 0 Δ % | 64% | –
10 | CCCCn1cnc2c1c(=O)n(CCCCCP(=O)(OCC)OCC)c(=O)n2C [Example 48, Diethyl [5-(7-butyl-3-methylxanthin-1-yl)pentyl]phosphonate] | – | – | -3 Δ % | -7 Δ % | 0 Δ % | 52% | –
11 | CCOP(=O)(CCCCCn1c(=O)c2c(ncn2CC2CC2)n(C)c1=O)OCC [Example 49, Diethyl [5-(7-cyclopropylmethyl-3-methylxanthin-1-yl)pentyl]phosphonate] | – | 3 to 6 mg/L (≈ 7.03 to 14.1 µM) | -5 Δ % | -5 Δ % | -25 Δ % | 57% | –
12 | CCCn1cnc2c1c(=O)n(CCCP(=O)(OCC)OCC)c(=O)n2C [Example 55, Diethyl [3-(3-methyl-7-propylxanthin-1-yl)propyl]phosphonate] | – | – | – | – | – | 59% | 1 to 3 mg/L (≈ 2.59 to 7.76 µM)
13 | CCCn1cnc2c1c(=O)n(CCCCCP(=O)(OCC)OCC)c(=O)n2CC [Example 57, Diethyl [5-(3-ethyl-7-propylxanthin-1-yl)pentyl]phosphonate] | – | – | -5 Δ % | -8 Δ % | -17 Δ % | 70% | –
